According to patent US7632972B2, “Compounds and methods for treatment of cancer and modulation of programmed cell death for melanoma and other cancer cells” (The Board of Trustees of the University of Illionis, priority 2003, dated 2009):

Key:
[1] = tested on: SK-OV-3; assay: NCI 60 cell line screen (SRB), Ovarian Cancer; type: cell-based, human
Text: (§1) The operation of this screen utilizes 60 different human tumor cell lines, representing leukemia, melanoma and cancers of the lung, colon, brain, ovary, breast, prostate, and kidney. The aim is to prioritize for further evaluation, synthetic compounds or natural product samples showing selective growth inhibition or cell killing of particular tumor cell lines. This screen is unique in that the complexity of a 60 cell line dose response produced by a given compound results in a biological response pattern which can be utilized in pattern recognition algorithms. Using these algorithms, it is possible to assign a putative mechanism of action to a test compound, or to determine that the response pattern is unique and not similar to that of any of the standard prototype compounds included in the NCl database (see DTP Overview tab). In addition, following characterization of various cellular molecular targets in the 60 cell lines, it may be possible to select compounds most likely to interact with a specific molecular target.
(§2) The human tumor cell lines of the cancer screening panel are grown in RPMI 1640 medium containing 5% fetal bovine serum and 2 mM L-glutamine. For a typical screening experiment, cells are inoculated into 96 well microtiter plates in 100 μL at plating densities ranging from 5,000 to 40,000 cells/well depending on the doubling time of individual cell lines. After cell inoculation, the microtiter plates are incubated at 37° C., 5% CO2, 95% air and 100% relative humidity for 24 h prior to addition of experimental drugs.
(§3) After 24 h, two plates of each cell line are fixed in situ with TCA, to represent a measurement of the cell population for each cell line at the time of drug addition (Tz). Experimental drugs are solubilized in dimethyl sulfoxide at 400-fold the desired final maximum test concentration and stored frozen prior to use. At the time of drug addition, an aliquot of frozen concentrate is thawed and diluted to twice the desired final maximum test concentration with complete medium containing 50 μg/ml gentamicin. Additional four, 10-fold or ½ log serial dilutions are made to provide a total of five drug concentrations plus control. Aliquots of 100 μl of these different drug dilutions are added to the appropriate microtiter wells already containing 100 μl of medium, resulting in the required final drug concentrations.
(§4) Following drug addition, the plates are incubated for an additional 48 h at 37° C., 5% CO2, 95% air, and 100% relative humidity. For adherent cells, the assay is terminated by the addition of cold TCA. Cells are fixed in situ by the gentle addition of 50 μl of cold 50% (w/v) TCA (final concentration, 10% TCA) and incubated for 60 minutes at 4° C. The supernatant is discarded, and the plates are washed five times with tap water and air dried. Sulforhodamine B (SRB) solution (100 μl) at 0.4% (w/v) in 1% acetic acid is added to each well, and plates are incubated for 10 minutes at room temperature. After staining, unbound dye is removed by washing five times with 1% acetic acid and the plates are air dried. Bound stain is subsequently solubilized with 10 mM trizma base, and the absorbance is read on an automated plate reader at a wavelength of 515 nm. For suspension cells, the methodology is the same except that the assay is terminated by fixing settled cells at the bottom of the wells by gently adding 50 μl of 80% TCA (final concentration, 16% TCA). Using the seven absorbance measurements [time zero, (Tz), control growth, (C), and test growth in the presence of drug at the five concentration levels (Ti)], the percentage growth is calculated at each of the drug concentrations levels. Percentage growth inhibition is calculated as: [(Ti−Tz)/(C−Tz)]×100 for concentrations for which Ti>/=Tz [(Ti−Tz)/Tz]×100 for concentrations for which Ti<Tz.
(§5) Three dose response parameters are calculated for each experimental agent. […]

[2] = tested on: OVCAR-4; assay: NCI 60 cell line screen (SRB), Ovarian Cancer; type: cell-based, human
Text: as §1, §2, §3, §4, §5

[3] = tested on: IGROV1; assay: NCI 60 cell line screen (SRB), Ovarian Cancer; type: cell-based, human
Text: as §1, §2, §3, §4, §5

[4] = tested on: OVCAR-8; assay: NCI 60 cell line screen (SRB), Ovarian Cancer; type: cell-based, human
Text: as §1, §2, §3, §4, §5

[5] = tested on: OVCAR-5; assay: NCI 60 cell line screen (SRB), Ovarian Cancer; type: cell-based, human
Text: as §1, §2, §3, §4, §5

[6] = tested on: human tumor cell lines; assay: NCI DTP 60 human tumor cell line screen (whole panel or cell lines not listed singly); type: cell-based; conditions: NCI panel of human cancer cell lines
Text: Selected compounds were identified for additional testing against a panel of human cancer cell lines maintained by the National Cancer Institute.
Potential anti-cancer agents are screened, and in certain instances were screened, using a screening system provided and performed by the National Cancer Institute (NCl). See http://dtp.nci.nih.gov/docs/misc/common_files/submit_compounds.html. The Developmental Therapeutics Program (DTP) of NCl operates an anti-cancer screening program. The program accepts both natural and synthetic compounds. For screening of natural products extracts, the Natural Products Branch can be contacted.
The operation of this screen utilizes 60 different human tumor cell lines, representing leukemia, melanoma and cancers of the lung, colon, brain, ovary, breast, prostate, and kidney. The aim is to prioritize for further evaluation, synthetic compounds or natural product samples showing selective growth inhibition or cell killing of particular tumor cell lines. […]
Following drug addition, the plates are incubated for an additional 48 h at 37° C., 5% CO2, 95% air, and 100% relative humidity. […] Bound stain is subsequently solubilized with 10 mM trizma base, and the absorbance is read on an automated plate reader at a wavelength of 515 nm. […]

COc1cccc(CCNC(=O)CC(c2ccccc2)(c2ccccc2)c2ccccc2)c1 [Compound Z3]
GI50 ([1]; SK-OV-3): > 100 µM
TGI ([1]; SK-OV-3): >1.00E−04
Percent Growth ([1]; SK-OV-3, Log10 Concentration −4.0): 87%
Percent Growth ([1]; SK-OV-3, Log10 Concentration −5.0): 84%
Percent Growth ([1]; SK-OV-3, Log10 Concentration −6.0): 97%
Percent Growth ([1]; SK-OV-3, Log10 Concentration −7.0): 98%
Percent Growth ([1]; SK-OV-3, Log10 Concentration −8.0): 92%
CC50 ([1]; SK-OV-3, read-out: LC50 (the source's name)): > 100 µM
GI50 ([2]; OVCAR-4): > 100 µM
TGI ([2]; OVCAR-4): >1.00E−04
Percent Growth ([2]; OVCAR-4, Log10 Concentration −4.0): 92%
Percent Growth ([2]; OVCAR-4, Log10 Concentration −5.0): 80%
Percent Growth ([2]; OVCAR-4, Log10 Concentration −6.0): 82%
Percent Growth ([2]; OVCAR-4, Log10 Concentration −7.0): 106%
Percent Growth ([2]; OVCAR-4, Log10 Concentration −8.0): 92%
CC50 ([2]; OVCAR-4, read-out: LC50 (the source's name)): > 100 µM
TGI ([3]; IGROV1): >1.00E−04
Percent Growth ([3]; IGROV1, Log10 Concentration −4.0): 10%
Percent Growth ([3]; IGROV1, Log10 Concentration −5.0): 22%
Percent Growth ([3]; IGROV1, Log10 Concentration −6.0): 23%
Percent Growth ([3]; IGROV1, Log10 Concentration −7.0): 63%
Percent Growth ([3]; IGROV1, Log10 Concentration −8.0): 29%
CC50 ([3]; IGROV1, read-out: LC50 (the source's name)): > 100 µM
GI50 ([4]; OVCAR-8): 4.98 µM
TGI ([4]; OVCAR-8): 4.77E−05
Percent Growth ([4]; OVCAR-8, Log10 Concentration −4.0): −16%
Percent Growth ([4]; OVCAR-8, Log10 Concentration −5.0): 33%
Percent Growth ([4]; OVCAR-8, Log10 Concentration −6.0): 88%
Percent Growth ([4]; OVCAR-8, Log10 Concentration −7.0): 117%
Percent Growth ([4]; OVCAR-8, Log10 Concentration −8.0): 116%
CC50 ([4]; OVCAR-8, read-out: LC50 (the source's name)): > 100 µM
GI50 ([5]; OVCAR-5): 11.7 µM
TGI ([5]; OVCAR-5): >1.00E−04
Percent Growth ([5]; OVCAR-5, Log10 Concentration −4.0): 15%
Percent Growth ([5]; OVCAR-5, Log10 Concentration −5.0): 53%
Percent Growth ([5]; OVCAR-5, Log10 Concentration −6.0): 83%
Percent Growth ([5]; OVCAR-5, Log10 Concentration −7.0): 87%
Percent Growth ([5]; OVCAR-5, Log10 Concentration −8.0): 90%
CC50 ([5]; OVCAR-5, read-out: LC50 (the source's name)): > 100 µM
activity against colon cancer cells [6]: significant activity
activity against melanoma cells [6]: significant activity
